Target: T1, CblC (Homo sapiens, UniProt Q9Y4U1)
T1 sequence (Q9Y4U1 1-282): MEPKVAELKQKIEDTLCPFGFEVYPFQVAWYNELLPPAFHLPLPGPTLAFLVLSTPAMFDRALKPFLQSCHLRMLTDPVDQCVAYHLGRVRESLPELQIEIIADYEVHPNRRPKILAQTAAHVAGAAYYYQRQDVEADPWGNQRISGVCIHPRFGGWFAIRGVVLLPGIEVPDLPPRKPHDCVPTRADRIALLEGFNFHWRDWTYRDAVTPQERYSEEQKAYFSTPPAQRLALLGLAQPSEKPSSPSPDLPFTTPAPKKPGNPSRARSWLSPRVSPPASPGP
Test: isothermal titration calorimetry
Settings: in the presence of glutathione (GSH); base-off binding

Kd: 30 nM
Substance: PhEtyCbl [compound 2]

— PMC5681751 (Angewandte Chemie (International ed. in English), 2017)
